The term inhibition denotes the drop in the measured response relative to a control, in per cent.

Consider 52 compounds from patent US6221865A, “Inhibitors of protein isoprenyl transferases” (priority 1998, dated 2001).

The structures appear in SMILES notation. Where a name gives a salt, the structure may show the parent alone.

The target in this test is T1, protein farnesyltransferase (Rattus norvegicus, UniProt Q02293+Q04631).
T1 construct: The enzyme is purified according to Reiss, Y., et al., Cell, 62: 81-88 (1990), utilizing steps one through three; from tissue; host or cells: rat brain
As to the kind of experiment: Inhibition of farnesyltransferase (scintillation proximity assay, rat brain enzyme, biotin-K Ras B fragment substrate). Conditions: for % inhibition of farnesyltransferase at 1 × 10^-6 M: 1 × 10^-6 M (Table 2). The format is biochemical. The method, boiled down: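 Enzyme from rat brain, partly purified (steps one to three), assayed by SPA kit using 0.1 mM final biotin-K Ras B peptide as prenyl acceptor rather than biotin-lamin. Activity given as percent inhibition.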
(In general: In a scintillation proximity assay essentially only radioactivity close to the scintillant gives light.)

T1 sequence (Q02293 whole entry, one chain of several): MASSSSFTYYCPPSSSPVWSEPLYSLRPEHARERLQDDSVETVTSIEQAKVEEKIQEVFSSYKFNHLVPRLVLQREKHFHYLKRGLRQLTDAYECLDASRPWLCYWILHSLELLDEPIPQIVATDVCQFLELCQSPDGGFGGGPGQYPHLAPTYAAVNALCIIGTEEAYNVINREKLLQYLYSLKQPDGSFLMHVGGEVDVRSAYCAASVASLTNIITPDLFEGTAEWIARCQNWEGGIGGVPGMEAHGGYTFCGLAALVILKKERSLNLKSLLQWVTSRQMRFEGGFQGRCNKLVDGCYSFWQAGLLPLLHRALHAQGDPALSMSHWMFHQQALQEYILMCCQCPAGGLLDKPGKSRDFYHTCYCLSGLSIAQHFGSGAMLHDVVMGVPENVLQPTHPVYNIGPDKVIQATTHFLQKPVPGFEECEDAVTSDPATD

Take `CSCC[C@H](NC(=O)c1ccc(CN(CCC2CCCCC2)C2CC2)cc1-c1ccccc1C)C(=O)O` [Example 880]: under “1 × 10^-8 M (Table 4)”, the “% inhibition of farnesyltransferase at 1 × 10^-8 M” value (“% inhibition … at 1 × 10^-8 M” for short) was 95%. For `CSCC[C@H](NC(=O)c1ccc(CN(Cc2cncs2)C2CCSCC2)cc1-c1ccccc1C)C(=O)O` [Example 881], the “% inhibition … at 1 × 10^-8 M” value (1 × 10^-8 M (Table 4)) worked out at 69%.

Consider `CSCC[C@H](NC(=O)c1ccc(CO[C@H](CSC)CC2CCCCC2)cc1-c1ccccc1C)C(=O)O` [Example 882], for which, for the setting “1 × 10^-8 M (Table 4)”, the “% inhibition … at 1 × 10^-8 M” value was determined as 79%. Still for that read-out and setting: to `CSCC[C@H](NC(=O)c1ccc(CO[C@H](CSC(C)(C)C)CC2CCCCC2)cc1-c1ccccc1C)C(=O)O` [Example 883] belongs 91%. Take `CSCC[C@H](NC(=O)c1ccc(CO[C@H](CSc2ccccc2)CC2CCCCC2)cc1-c1ccccc1C)C(=O)O` [Example 884]: the “% inhibition … at 1 × 10^-8 M” value (1 × 10^-8 M (Table 4)) was determined as 94%. On the same count and under the same terms, the same measure for `CSCC[C@H](NC(=O)c1ccc(CO[C@@H](CC2CCCCC2)CN2CCOCC2)cc1-c1ccccc1C)C(=O)O` [Example 885]: 95%. Take `CSCC[C@H](NC(=O)c1ccc(CN(C(=O)OC(C)(C)C)C(CC2CCCCC2)CC2CCCCC2)cc1-c1ccccc1C)C(=O)O` [Example 886]: the “% inhibition of farnesyltransferase at 1 × 10^-6 M” value (from here on “% inhibition … at 1 × 10^-6 M”) is listed as 35%. Regarding `CSCC[C@H](NC(=O)c1ccc(CN[C@@H](CC2CCCCC2)C(=O)N2CCCCC2)cc1-c1ccccc1C)C(=O)O` [Example 887], the “% inhibition … at 1 × 10^-8 M” value (1 × 10^-8 M (Table 4)) was 92%.

For the compound `CSCC[C@H](NC(=O)c1ccc(CON=C(Cc2ccccc2)Cc2ccccc2)cc1-c1ccccc1C)C(=O)O` [Example 888, N-[4-N-(1,3-Diphenylpropan-2-yl)iminooxymethyl-2-(2-methylphenyl)benzoyl]-methionine lithium salt], the inhibition at 0.01 µM (read-out: % inhibition of farnesyltransferase at 1 × 10^-8 M, 1 × 10^-8 M (Table 4)) was found to be 86%.

As for `CSCC[C@H](NC(=O)c1ccc(COCC(CC2CCCCC2)CC2CCCCC2)cc1-c1ccccc1C)C(=O)O` [Example 889], the “% inhibition … at 1 × 10^-6 M” value was determined as 95%. Take `CSCC[C@H](NC(=O)c1ccc(COCc2cnco2)cc1-c1ccccc1C)C(=O)[O-].[Li+]` [Example 891]: the “% inhibition of farnesyltransferase at 1 × 10^-7 M” value (from here on “% inhibition … at 1 × 10^-7 M”) (1 × 10^-7 M (Table 3)) was found to be 94%.

Turning to `CSCC[C@H](NC(=O)c1ccc(COCc2cnc(-c3ccccc3Cl)o2)cc1-c1ccccc1C)C(=O)[O-].[Li+]` [Example 892], under “1 × 10^-8 M (Table 4)”, the “% inhibition … at 1 × 10^-8 M” value is 59%. For the compound `CSCC[C@H](NC(=O)c1ccc(COCc2cnc(-c3cccc(Cl)c3)o2)cc1-c1ccccc1C)C(=O)[O-].[Li+]` [Example 893], the “% inhibition … at 1 × 10^-7 M” value (1 × 10^-7 M (Table 3)) is on record as 87%.

For `CSCC[C@H](NC(=O)c1ccc(COCc2cnc(-c3ccc(Cl)cc3)o2)cc1-c1ccccc1C)C(=O)[O-].[Li+]` [Example 894], for the setting “1 × 10^-7 M (Table 3)”, the “% inhibition … at 1 × 10^-7 M” value was determined as 89%. On to `CSCC[C@H](NC(=O)c1ccc(COCc2cnc(C(C)(C)C)s2)cc1-c1ccccc1C)C(=O)[O-].[Li+]` [Example 895], for which the “% inhibition … at 1 × 10^-7 M” value (1 × 10^-7 M (Table 3)) was 92%. `COc1ncc(COCc2ccc(C(=O)N[C@@H](CCSC)C(=O)O)c(-c3ccccc3C)c2)s1` [Example 896]: the “% inhibition … at 1 × 10^-7 M” value (1 × 10^-7 M (Table 3)) worked out at 96%. As to `CSCC[C@H](NC(=O)c1ccc(COCc2cnc(-c3ccccc3Cl)s2)cc1-c1ccccc1C)C(=O)[O-].[Li+]` [Example 897], the “% inhibition … at 1 × 10^-8 M” value (1 × 10^-8 M (Table 4)) is 76%. Take `CSCC[C@H](NC(=O)c1ccc(COCc2cnc(-c3cccc(F)c3)s2)cc1-c1ccccc1C)C(=O)[O-].[Li+]` [Example 898]: the “% inhibition … at 1 × 10^-8 M” value (1 × 10^-8 M (Table 4)) came out at 82%.

For the compound `CSCC[C@H](NC(=O)c1ccc(COCc2cnc(-c3cccc(Cl)c3)s2)cc1-c1ccccc1C)C(=O)[O-].[Li+]` [Example 899], the “% inhibition … at 1 × 10^-8 M” value (1 × 10^-8 M (Table 4)) is given as 88%. On to `CSCC[C@H](NC(=O)c1ccc(COCc2cnc(-c3ccc(F)cc3)s2)cc1-c1ccccc1C)C(=O)O` [Example 900], for which the “% inhibition … at 1 × 10^-7 M” value (1 × 10^-7 M (Table 3)) is reported as 95%. For the compound `CSCC[C@H](NC(=O)c1ccc(COCc2cnc(-c3ccc(Cl)cc3)s2)cc1-c1ccccc1C)C(=O)[O-].[Li+]` [Example 901], the “% inhibition … at 1 × 10^-8 M” value (1 × 10^-8 M (Table 4)) was 84%. Consider `CSCC[C@H](NC(=O)c1ccc(NC(=O)OCc2cncs2)cc1-c1ccccc1C)C(=O)O` [Example 902], for which the “% inhibition … at 1 × 10^-6 M” value turned out to be 85%.

As for `CSCC[C@H](NC(=O)c1ccc(COCc2cc(-c3ccc(Cl)cc3)co2)cc1-c1ccccc1C)C(=O)[O-].[Li+]` [Example 904], the “% inhibition … at 1 × 10^-8 M” value (1 × 10^-8 M (Table 4)) was 85%. For the compound `CCSC[C@H](CC(C)C)NCc1ccc(C(=O)N[C@@H](CCSC)C(=O)O)c(-c2ccccc2C)c1` [Example 905], the “% inhibition … at 1 × 10^-8 M” value (1 × 10^-8 M (Table 4)) is 86%. Turning to `CCSC[C@H](CC(C)C)N(C)Cc1ccc(C(=O)N[C@@H](CCSC)C(=O)O)c(-c2ccccc2C)c1` [Example 906], the “% inhibition … at 1 × 10^-7 M” value (1 × 10^-7 M (Table 3)) is listed as 88%. `CSCC[C@H](NC(=O)c1ccc(CN(C)C(CC2CCCCC2)CC2CCCCC2)cc1-c1ccccc1C)C(=O)O` [Example 907]: the “% inhibition … at 1 × 10^-8 M” value (1 × 10^-8 M (Table 4)) came out at 79%.

With `CSCC[C@H](NC(=O)c1ccc(CN(CC(C)C)C(CC2CCCCC2)CC2CCCCC2)cc1-c1ccccc1C)C(=O)O` [Example 908], the “% inhibition … at 1 × 10^-6 M” value amounted to 88%. Turning to `CSCC[C@H](NC(=O)c1ccc(CN(C(C)=O)C(CC2CCCCC2)CC2CCCCC2)cc1-c1ccccc1C)C(=O)O` [Example 909], under “1 × 10^-8 M (Table 4)”, the “% inhibition … at 1 × 10^-8 M” value came out at 79%. As for `CSCC[C@H](NC(=O)c1ccc(CN(C(=O)c2ccccc2)C(CC2CCCCC2)CC2CCCCC2)cc1-c1ccccc1C)C(=O)O` [Example 910], the “% inhibition … at 1 × 10^-6 M” value amounted to 42%. For `CSCC[C@H](NC(=O)c1ccc(CN(C(CC2CCCCC2)CC2CCCCC2)S(=O)(=O)c2ccccc2)cc1-c1ccccc1C)C(=O)O` [Example 911], the “% inhibition … at 1 × 10^-6 M” value is given as 65%. On to `CCCCN(CCCC)C(=O)CNCc1ccc(C(=O)N[C@@H](CCSC)C(=O)O)c(-c2ccccc2C)c1` [Example 912], for which the “% inhibition … at 1 × 10^-7 M” value (1 × 10^-7 M (Table 3)) is 85%.

For the compound `CCCCN(CCCC)C(=O)CN(C)Cc1ccc(C(=O)N[C@@H](CCSC)C(=O)O)c(-c2ccccc2C)c1` [Example 913], the “% inhibition … at 1 × 10^-7 M” value (1 × 10^-7 M (Table 3)) amounted to 89%. On the same count and under the same terms, the same measure for `CSCC[C@H](NC(=O)c1ccc(CNCC(=O)N(Cc2ccccc2)Cc2ccccc2)cc1-c1ccccc1C)C(=O)O` [Example 914]: 91%. For `CCCCS(=O)(=O)N(CCC1CCCCC1)Cc1ccc(C(=O)N[C@@H](CCSC)C(=O)O)c(-c2ccccc2C)c1` [Example 916], the “% inhibition … at 1 × 10^-8 M” value (1 × 10^-8 M (Table 4)) was determined as 96%. Consider `CCCCN(CCCC)Cc1ccc(C(=O)N[C@@H](CCSC)C(=O)O)c(-c2ccccc2C)c1` [Example 917], for which, for the setting “1 × 10^-7 M (Table 3)”, the “% inhibition … at 1 × 10^-7 M” value came out at 78%.

In the case of `CSCC[C@H](NC(=O)c1cc(Cc2ccccc2)c(COCc2ccccc2)cc1-c1ccccc1C)C(=O)O` [Example 923], the “% inhibition … at 1 × 10^-6 M” value was 78%. Take `CSCC[C@H](NC(=O)c1cc(Cc2ccccc2)c(COCc2ccco2)cc1-c1ccccc1C)C(=O)O` [Example 924]: the “% inhibition … at 1 × 10^-6 M” value is given as 77%. The same measure, in the same setting: the same measure for `CSCC[C@H](NC(=O)c1cc(Cc2ccccc2)c(COCCCc2ccccc2)cc1-c1ccccc1C)C(=O)O` [Example 925]: 87%.

For the compound `CCCCS(=O)(=O)N(CCCc1ccccc1)Cc1ccc(C(=O)N[C@@H](CCSC)C(=O)O)c(-c2ccccc2C)c1` [Example 927], for the setting “1 × 10^-8 M (Table 4)”, the “% inhibition … at 1 × 10^-8 M” value amounted to 74%.

`CCCCN(CCc1ccccc1)Cc1ccc(C(=O)N[C@@H](CCSC)C(=O)O)c(-c2ccccc2C)c1` [Example 928]: the “% inhibition … at 1 × 10^-8 M” value (1 × 10^-8 M (Table 4)) was 84%. As to `CCCC(CCC)NOCc1ccc(C(=O)N[C@@H](CCSC)C(=O)O)c(-c2ccccc2C)c1` [Example 929, N-[4-(N-Hept-4-ylaminooxymethyl)-2-(2-methylphenyl)benzoyl]methionine], the inhibition at 0.1 µM (read-out: % inhibition of farnesyltransferase at 1 × 10^-7 M, 1 × 10^-7 M (Table 3)) worked out at 81%. As to `CSCC[C@H](NC(=O)c1ccc(COCc2ccccc2Cl)cc1-c1ccccc1C)C(=O)[O-].[Li+]` [Example 930], the “% inhibition … at 1 × 10^-8 M” value (1 × 10^-8 M (Table 4)) came out at 66%. As to `COc1ccccc1COCc1ccc(C(=O)N[C@@H](CCSC)C(=O)[O-])c(-c2ccccc2C)c1.[Li+]` [Example 931], the “% inhibition … at 1 × 10^-7 M” value (1 × 10^-7 M (Table 3)) stood at 98%. Consider `COc1cccc(COCc2ccc(C(=O)N[C@@H](CCSC)C(=O)[O-])c(-c3ccccc3C)c2)c1.[Li+]` [Example 932], for which the “% inhibition … at 1 × 10^-8 M” value (1 × 10^-8 M (Table 4)) is 60%. Regarding `CSCC[C@H](NC(=O)c1ccc(COCc2ccc(Cl)cc2)cc1-c1ccccc1C)C(=O)[O-].[Li+]` [Example 933], where the note is “1 × 10^-7 M (Table 3)”, the “% inhibition … at 1 × 10^-7 M” value was 91%. Turning to `CSCC[C@H](NC(=O)c1ccc(COCc2cccc(Cl)c2)cc1-c1ccccc1C)C(=O)[O-].[Li+]` [Example 934], for the setting “1 × 10^-8 M (Table 4)”, the “% inhibition … at 1 × 10^-8 M” value worked out at 71%. For the compound `COc1ccc(COCc2ccc(C(=O)N[C@@H](CCSC)C(=O)[O-])c(-c3ccccc3C)c2)cc1.[Li+]` [Example 935], the “% inhibition … at 1 × 10^-7 M” value (1 × 10^-7 M (Table 3)) came to 72%.

Regarding `CSCC[C@H](NC(=O)c1ccc(CNCc2ccccc2)cc1-c1ccccc1)C(=O)O.Cl` [Example 936], the “% inhibition … at 1 × 10^-6 M” value is listed as 69%. `COc1ccc(CCOCc2ccc(C(=O)N[C@@H](CCSC)C(=O)O)c(-c3ccccc3C)c2)cc1` [Example 937]: the “% inhibition … at 1 × 10^-6 M” value is 95%. As to `CSCC[C@H](NC(=O)c1ccc(COCc2ccccc2C(C)C)cc1-c1ccccc1C)C(=O)[O-].[Li+]` [Example 938], for the setting “1 × 10^-8 M (Table 4)”, the “% inhibition … at 1 × 10^-8 M” value stood at 61%. In the case of `CSCC[C@H](NC(=O)c1ccc(COCc2cccc(C(C)C)c2)cc1-c1ccccc1C)C(=O)[O-].[Li+]` [Example 939], the “% inhibition … at 1 × 10^-8 M” value (1 × 10^-8 M (Table 4)) was determined as 72%. Take `CSCC[C@H](NC(=O)c1ccc(COCc2ccc(C(C)C)cc2)cc1-c1ccccc1C)C(=O)[O-].[Li+]` [Example 940]: the “% inhibition … at 1 × 10^-7 M” value (1 × 10^-7 M (Table 3)) stood at 92%.
